{"source": "patent EP0541192A1", "about": "“Use of opiate antagonists for the treatment of endogen hyperinsulinemia” (Ferring Arzneimittel GmbH, priority 1991, dated 1993)", "key": {"[1]": {"test": "side effects / tolerability during treatment", "format": "in vivo, Frauen", "conditions": "50 mg/Tag oral"}, "[2]": {"conditions": "general statement, no data; cited from earlier work"}, "[3]": {"test": "serum androgen and pituitary hormone levels during treatment", "format": "in vivo, Frauen", "conditions": "50 mg/Tag oral", "description": "(§1) Die folgenden Untersuchungen wurden an vier gegenüber Insulin resistenten Frauen durchgeführt, welche ein Hyperandrogenämie litten. Das Alter der Frauen lag zwischen 16 und 33 Jahren und ihr Körpermasseindex (Body mass Index - BMI) reichte von 28 bis 41. Die Hyperandrogenämie wurde durch Bestimmung von LH, FSH, Prolactin, Testosteron, freien Testosteronen, SHBG und DHEAS im Serum diagnostiziert. Vor der Behandlung lagen die Testosteronwerte zwischen 0,4 und 1,65 ng/ml und die Insulinkonzentrationen betrugen von 25 bis 62 mcU/ml.\n(§2) Als Opiat-Antagonist wurde Naltrexon (Ferring Arzneimittel GmbH, Kiel) in einer Dosis von 50 mg/Tag oral verabreicht. 4 Wochen nach Beginn der Naltrexon-Behandlung wurde nach dem gleichen Verfahren wie oben beschrieben ein zweiter oGTT durchgeführt und die Ergebnisse dieses Tests mit den vor Beginn der Behandlung erhaltenen Ergebnissen verglichen, wobei die Proben paarweise einem t-Test unterworfen wurden.\nIm Gegensatz dazu blieben die Androgenkonzentrationen sowie die LH-, FSH- und Prolactin-Spiegel durch die Naltrexon-Behandlung unbeeinflußt."}, "[4]": {"test": "oral glucose tolerance test (oGTT) before and after 4 weeks of treatment", "format": "in vivo, Frauen", "conditions": "50 mg/Tag oral", "description": "as §1\nDie Insulinresistenz wurde durch orale Verabreichung von 400 ml einer Lösung nachgewiesen, welche eine Mono-Oligosaccharidmischung enthielt, die nach enzymatischer Hydrolyse im Gastrointestinaltrakt 100 g Glucose lieferte (Dextro-oGTT, Boehringer Mannheim). Während des oralen Glucose-Toleranz-Tests (oGTT) wurden vor der Kohlenhydratbelastung und danach 3 Stunden lang im Abstand von jeweils 15 Minuten Blutproben entnommen. In allen Proben wurde die Glucosekonzentration mit dem Hexokinase/Glucose-6-Phosphatdehydrogenase-Verfahren bestimmt. Ferner wurden die Insulin- und C-Peptidkonzentrationen mit handelsüblichen Radioimmun-Kits (Serono Diagnostic, Freiburg) bestimmt. Die Ergebnisse des oGTT wurden ausgewertet, indem das Verhältnis von Insulin zu Glucose berechnet wurde und die Flächen unter den Glucose-, Insulin- und C-Peptid-Kurven während des oGTT bestimmt wurden (vgl. Figur 1).\nas §2"}}}
{"smiles": "O=C1CC[C@@]2(O)[C@H]3Cc4ccc(O)c5c4[C@@]2(CCN3CC2CC2)C1O5", "note": "(stereo partly drawn) [Naltrexon, 17-(Cyclopropylmethyl)-4,5-epoxy-3,14-dihydroxymorphinan-6-on]", "values": [{"measurement": "Veränderungen des Blutbildes, der Leberenzyme und des Nierenstatus", "setting": "[1]", "result": "nicht beobachtet"}, {"measurement": "Nebenwirkungen", "setting": "[1]; one of four patients", "result": "Übelkeit mit Erbrechen und leichten Kopfschmerzen"}, {"measurement": "Verträglichkeit", "setting": "[1]; three of four patients", "result": "gut vertragen"}, {"measurement": "Verweildauer im Plasma", "setting": "[2]", "result": "lange"}, {"measurement": "Androgenkonzentrationen", "setting": "[3]", "result": "unbeeinflußt"}, {"measurement": "FSH-Spiegel", "setting": "[3]", "result": "unbeeinflußt"}, {"measurement": "LH-Spiegel", "setting": "[3]", "result": "unbeeinflußt"}, {"measurement": "Prolactin-Spiegel", "setting": "[3]", "result": "unbeeinflußt"}, {"measurement": "Verhältnis von Insulin zu Glucose", "setting": "[4]; oGTT", "result": "sank"}, {"measurement": "molare Verhältnis von C-Peptid zu Insulin", "setting": "[4]; oGTT", "result": "stieg"}, {"measurement": "Konzentration von C-Peptid", "setting": "[4]; oGTT, reduced, but not to the same extent as insulin", "result": "reduziert"}, {"measurement": "Insulinspiegel nach Kohlenhydratbelastung", "setting": "[4]; four insulin-resistant hyperandrogenaemic women, oGTT vs. before treatment", "result": "beeindruckende Senkung"}]}
